{"source": "patent US9695155B2", "about": "“Herbicidal substituted pyrimidinyloxy benzene compounds” (E. I. DU PONT DE NEMOURS AND COMPANY, priority 2013, dated 2017)", "key": {"pigweed [1]": {"system": "pigweed", "assay": "Test A postemergence", "assay_type": "in vivo, Amaranthus retroflexus", "details": "Amaranthus retroflexus, post-emergence, 0 to 100 scale where 0 is no effect and 100 is complete control, read-out: Plant response rating, Pigweed", "procedure,_shortened": "(§1)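 Injury scores run from 0, no effect, to 100, complete control, judged by eye against untreated plants roughly 10 days after treatment. Chemicals carried a surfactant in a non-phytotoxic solvent and went onto loam–sand soil preemergence or onto one- to two-leaf seedlings postemergence.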"}, "barnyardgrass [2]": {"system": "barnyardgrass", "assay": "Test A preemergence", "assay_type": "in vivo, Echinochloa crus-galli", "details": "Echinochloa crus-galli, pre-emergence, 240 h", "procedure,_shortened": "as §1"}, "velvetleaf": {"system": "velvetleaf", "assay": "Test A postemergence", "assay_type": "in vivo, Abutilon theophrasti", "details": "Abutilon theophrasti, post-emergence, 240 h, 0 to 100 scale where 0 is no effect and 100 is complete control, read-out: Plant response rating, Velvetleaf", "procedure,_shortened": "as §1"}, "barnyardgrass [3]": {"system": "barnyardgrass", "assay": "Test C postemergence", "assay_type": "in vivo, Echinochloa crus-galli", "details": "Echinochloa crus-galli, post-emergence", "procedure,_shortened": "(§2)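 Whole-plant greenhouse test with surfactant-containing solvent formulation, applied preemergence to sown loam–sand pots or postemergence to 2–18 cm plants. Scored by eye 13 to 15 days on, 0–100 scale.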"}, "large (Lg) crabgrass": {"system": "large (Lg) crabgrass", "assay": "Test C postemergence", "assay_type": "in vivo, Digitaria sanguinalis", "details": "Digitaria sanguinalis, post-emergence", "procedure,_shortened": "as §2"}, "wild oat": {"system": "wild oat", "assay": "Test C postemergence", "assay_type": "in vivo, Avena fatua", "details": "Avena fatua, post-emergence", "procedure,_shortened": "as §2"}, "wheat": {"system": "wheat", "assay": "Test A preemergence", "assay_type": "in vivo, Triticum aestivum", "procedure,_shortened": "as §1"}, "waterhemp": {"system": "waterhemp", "assay": "Test C postemergence", "assay_type": "in vivo, Amaranthus rudis", "details": "Amaranthus tuberculatus, post-emergence", "procedure,_shortened": "as §2"}, "galium": {"system": "galium", "assay": "Test C postemergence", "assay_type": "in vivo, Galium aparine", "details": "Galium, post-emergence", "procedure,_shortened": "as §2"}, "johnsongrass": {"system": "johnsongrass", "assay": "Test C postemergence", "assay_type": "in vivo, Sorghum halepense", "procedure,_shortened": "as §2"}, "pigweed [4]": {"system": "pigweed", "assay": "Test A preemergence", "assay_type": "in vivo, Amaranthus retroflexus", "details": "Amaranthus retroflexus, pre-emergence", "procedure,_shortened": "as §1"}, "giant foxtail": {"system": "giant foxtail", "assay": "Test A preemergence", "assay_type": "in vivo, Setaria faberii", "details": "Setaria faberi, pre-emergence, 240 h", "procedure,_shortened": "as §1"}, "lambsquarters": {"system": "lambsquarters", "assay": "Test C postemergence", "assay_type": "in vivo, Chenopodium album", "details": "Chenopodium album, post-emergence", "procedure,_shortened": "as §2"}, "blackgrass": {"system": "blackgrass", "assay": "Test C postemergence", "assay_type": "in vivo, Alopecurus myosuroides", "details": "Alopecurus myosuroides, post-emergence", "procedure,_shortened": "as §2"}, "oilseed rape": {"system": "oilseed rape", "assay": "Test C postemergence", "assay_type": "in vivo, Brassica napus", "details": "Brassica napus, post-emergence", "procedure,_shortened": "as §2"}}, "data": [{"molecule": "FC(F)c1cnn(-c2ccccc2Oc2ncc(Cl)cn2)c1", "note": "[Compound 80, 5-chloro-2-[2-[4-(difluoromethyl)-1H-pyrazol-1-yl]phenoxy]pyrimidine]", "values": [{"measurement": "pest or weed control at 125 g/ha", "setting": "pigweed [1]; 125 g ai/ha", "result": 100, "unit": "%"}, {"measurement": "pest or weed control at 500 g/ha", "setting": "pigweed [1]; 500 g ai/ha", "result": 100, "unit": "%"}, {"measurement": "pest or weed control at 125 g/ha", "setting": "barnyardgrass [2]; 125 g ai/ha, 0 to 100 scale where 0 is no effect and 100 is complete control, read-out: Plant response rating, Barnyardgrass", "result": 60, "unit": "%"}, {"measurement": "pest or weed control at 500 g/ha", "setting": "barnyardgrass [2]; 500 g ai/ha, 0 to 100 scale, 0 no effect, 100 complete control, approx. 10 days, read-out: Barnyardgrass plant response rating", "result": 100, "unit": "%"}, {"measurement": "pest or weed control at 125 g/ha", "setting": "velvetleaf; 125 g ai/ha", "result": 100, "unit": "%"}, {"measurement": "pest or weed control at 500 g/ha", "setting": "velvetleaf; 500 g ai/ha", "result": 100, "unit": "%"}, {"measurement": "pest or weed control at 16 g/ha", "setting": "barnyardgrass [3]; 16 g ai/ha, postemergence, visual rating, scale 0 to 100 (0 no effect, 100 complete control), 13 to 15 days, read-out: Barnyardgrass plant response rating", "result": 0, "unit": "%"}, {"measurement": "pest or weed control at 125 g/ha", "setting": "barnyardgrass [3]; 125 g ai/ha, postemergence, read-out: Plant response rating (0 to 100), Barnyardgrass", "result": 5, "unit": "%"}, {"measurement": "pest or weed control at 31 g/ha", "setting": "barnyardgrass [3]; Postemergence, 31 g ai/ha, scale 0 to 100 (0 no effect, 100 complete control), 13 to 15 days, read-out: Plant response rating, Barnyardgrass", "result": 5, "unit": "%"}, {"measurement": "pest or weed control at 62 g/ha", "setting": "barnyardgrass [3]; Postemergence, 62 g ai/ha, scale 0 to 100 (0 no effect, 100 complete control), read-out: Plant response rating, Barnyardgrass", "result": 5, "unit": "%"}, {"measurement": "pest or weed control at 16 g/ha", "setting": "large (Lg) crabgrass; 16 g ai/ha, postemergence, visual rating, scale 0 to 100 (0 no effect, 100 complete control), 13 to 15 days, read-out: Crabgrass, Large plant response rating", "result": 0, "unit": "%"}, {"measurement": "pest or weed control at 125 g/ha", "setting": "large (Lg) crabgrass; 125 g ai/ha, postemergence, read-out: Plant response rating (0 to 100), Crabgrass, Large", "result": 5, "unit": "%"}, {"measurement": "pest or weed control at 31 g/ha", "setting": "large (Lg) crabgrass; Postemergence, 31 g ai/ha, scale 0 to 100 (0 no effect, 100 complete control), 13 to 15 days, read-out: Plant response rating, Crabgrass, Large", "result": 5, "unit": "%"}, {"measurement": "pest or weed control at 62 g/ha", "setting": "large (Lg) crabgrass; Postemergence, 62 g ai/ha, scale 0 to 100 (0 no effect, 100 complete control), read-out: Plant response rating, Crabgrass, Large", "result": 5, "unit": "%"}, {"measurement": "pest or weed control at 125 g/ha", "setting": "wild oat; 125 g ai/ha, postemergence, read-out: Plant response rating (0 to 100), Oat, Wild", "result": 10, "unit": "%"}, {"measurement": "pest or weed control at 31 g/ha", "setting": "wild oat; Postemergence, 31 g ai/ha, scale 0 to 100 (0 no effect, 100 complete control), 13 to 15 days, read-out: Plant response rating, Oat, Wild", "result": 0, "unit": "%"}, {"measurement": "pest or weed control at 62 g/ha", "setting": "wild oat; Postemergence, 62 g ai/ha, scale 0 to 100 (0 no effect, 100 complete control), read-out: Plant response rating, Oat, Wild", "result": 5, "unit": "%"}, {"measurement": "Plant response rating, Wheat", "setting": "wheat; 125 g ai/ha, 0 to 100 scale where 0 is no effect and 100 is complete control", "result": 10}, {"measurement": "plant injury at 500 g/ha", "setting": "wheat; Triticum aestivum, pre-emergence, 240 h, 500 g ai/ha, 0 to 100 scale, 0 no effect, 100 complete control, approx. 10 days, read-out: Wheat plant response rating", "result": 50, "unit": "%"}, {"measurement": "pest or weed control at 125 g/ha", "setting": "waterhemp; 125 g ai/ha, postemergence, read-out: Plant response rating (0 to 100), Waterhemp", "result": 90, "unit": "%"}, {"measurement": "pest or weed control at 31 g/ha", "setting": "waterhemp; Postemergence, 31 g ai/ha, scale 0 to 100 (0 no effect, 100 complete control), 13 to 15 days, read-out: Plant response rating, Waterhemp", "result": 65, "unit": "%"}, {"measurement": "pest or weed control at 62 g/ha", "setting": "waterhemp; Postemergence, 62 g ai/ha, scale 0 to 100 (0 no effect, 100 complete control), read-out: Plant response rating, Waterhemp", "result": 70, "unit": "%"}, {"measurement": "pest or weed control at 16 g/ha", "setting": "galium; 16 g ai/ha, postemergence, visual rating, scale 0 to 100 (0 no effect, 100 complete control), 13 to 15 days, read-out: Galium plant response rating", "result": 55, "unit": "%"}, {"measurement": "pest or weed control at 125 g/ha", "setting": "galium; 125 g ai/ha, postemergence, read-out: Plant response rating (0 to 100), Galium", "result": 95, "unit": "%"}, {"measurement": "pest or weed control at 31 g/ha", "setting": "galium; Postemergence, 31 g ai/ha, scale 0 to 100 (0 no effect, 100 complete control), 13 to 15 days, read-out: Plant response rating, Galium", "result": 70, "unit": "%"}, {"measurement": "pest or weed control at 62 g/ha", "setting": "galium; Postemergence, 62 g ai/ha, scale 0 to 100 (0 no effect, 100 complete control), read-out: Plant response rating, Galium", "result": 85, "unit": "%"}, {"measurement": "Johnsongrass plant response rating", "setting": "johnsongrass; 16 g ai/ha, postemergence, visual rating, scale 0 to 100 (0 no effect, 100 complete control), 13 to 15 days", "result": 0}, {"measurement": "pest or weed control at 125 g/ha", "setting": "johnsongrass; Sorghum halepense, post-emergence, 125 g ai/ha, postemergence, read-out: Plant response rating (0 to 100), Johnsongrass", "result": 5, "unit": "%"}, {"measurement": "pest or weed control at 31 g/ha", "setting": "johnsongrass; Sorghum halepense, post-emergence, Postemergence, 31 g ai/ha, scale 0 to 100 (0 no effect, 100 complete control), 13 to 15 days, read-out: Plant response rating, Johnsongrass", "result": 0, "unit": "%"}, {"measurement": "pest or weed control at 62 g/ha", "setting": "johnsongrass; Sorghum halepense, post-emergence, Postemergence, 62 g ai/ha, scale 0 to 100 (0 no effect, 100 complete control), read-out: Plant response rating, Johnsongrass", "result": 5, "unit": "%"}, {"measurement": "pest or weed control at 125 g/ha", "setting": "pigweed [4]; 125 g ai/ha, 0 to 100 scale where 0 is no effect and 100 is complete control, read-out: Plant response rating, Pigweed", "result": 0, "unit": "%"}, {"measurement": "pest or weed control at 500 g/ha", "setting": "pigweed [4]; 240 h, 500 g ai/ha, 0 to 100 scale, 0 no effect, 100 complete control, approx. 10 days, read-out: Pigweed plant response rating", "result": 0, "unit": "%"}, {"measurement": "pest or weed control at 125 g/ha", "setting": "giant foxtail; 125 g ai/ha, 0 to 100 scale where 0 is no effect and 100 is complete control, read-out: Plant response rating, Foxtail, Giant", "result": 90, "unit": "%"}, {"measurement": "pest or weed control at 500 g/ha", "setting": "giant foxtail; 500 g ai/ha, 0 to 100 scale, 0 no effect, 100 complete control, approx. 10 days, read-out: Foxtail, Giant plant response rating", "result": 100, "unit": "%"}, {"measurement": "pest or weed control at 125 g/ha", "setting": "lambsquarters; 125 g ai/ha, postemergence, read-out: Plant response rating (0 to 100), Lambsquarters", "result": 55, "unit": "%"}, {"measurement": "pest or weed control at 31 g/ha", "setting": "lambsquarters; Postemergence, 31 g ai/ha, scale 0 to 100 (0 no effect, 100 complete control), 13 to 15 days, read-out: Plant response rating, Lambsquarters", "result": 60, "unit": "%"}, {"measurement": "pest or weed control at 62 g/ha", "setting": "lambsquarters; Postemergence, 62 g ai/ha, scale 0 to 100 (0 no effect, 100 complete control), read-out: Plant response rating, Lambsquarters", "result": 55, "unit": "%"}, {"measurement": "pest or weed control at 16 g/ha", "setting": "blackgrass; 16 g ai/ha, postemergence, visual rating, scale 0 to 100 (0 no effect, 100 complete control), 13 to 15 days, read-out: Blackgrass plant response rating", "result": 0, "unit": "%"}, {"measurement": "pest or weed control at 125 g/ha", "setting": "blackgrass; 125 g ai/ha, postemergence, read-out: Plant response rating (0 to 100), Blackgrass", "result": 40, "unit": "%"}, {"measurement": "pest or weed control at 31 g/ha", "setting": "blackgrass; Postemergence, 31 g ai/ha, scale 0 to 100 (0 no effect, 100 complete control), 13 to 15 days, read-out: Plant response rating, Blackgrass", "result": 5, "unit": "%"}, {"measurement": "pest or weed control at 62 g/ha", "setting": "blackgrass; Postemergence, 62 g ai/ha, scale 0 to 100 (0 no effect, 100 complete control), read-out: Plant response rating, Blackgrass", "result": 10, "unit": "%"}, {"measurement": "plant injury at 125 g/ha", "setting": "oilseed rape; 125 g ai/ha, postemergence, read-out: Plant response rating (0 to 100), Oilseed Rape", "result": 90, "unit": "%"}, {"measurement": "plant injury at 31 g/ha", "setting": "oilseed rape; Postemergence, 31 g ai/ha, scale 0 to 100 (0 no effect, 100 complete control), 13 to 15 days, read-out: Plant response rating, Oilseed Rape", "result": 70, "unit": "%"}, {"measurement": "plant injury at 62 g/ha", "setting": "oilseed rape; Postemergence, 62 g ai/ha, scale 0 to 100 (0 no effect, 100 complete control), read-out: Plant response rating, Oilseed Rape", "result": 80, "unit": "%"}]}]}
